Data from US4728650A, “3,4-dihydrobenzopyran derivatives and medicinal uses thereof” (Kuraray Co., Ltd., priority 1985, dated 1988).
Counter-ions that a name gives are not always drawn.

Legend:
[1] = Stress ulcer (water immersion stress) in mice; assay type: in vivo, mice (ddK strain, male)
Experimental: Male mice of ddK strain (body weights, 18-20 g) were placed in a stress cage in groups of 6 animals and immersed down to the level of the xiphoid process in a water bath at 22±1° C. to give a stress. Five hours later the mice were raised from the water bath and the stomach was removed under ether anesthesia. Into the stomach was infused 1.2 ml of a 10% aqueous solution of formaldehyde and, then, the stomach was immersed in a 10% aqueous solution of formaldehyde for 10 minutes for fixation of the tissue. After fixation, an incision was made along the greater curvature for observing ulcers which had appeared in the glandular portion of the stomach. The degree of ulceration was classified according to the following ulcer index scale and the % inhibition of ulcer was estimated.
2: Hemorrhage and erosion
3: Severe hemorrhage and erosion
Each test compound was orally administered, as suspended in a gum arabic solution in concentration of 5%, to mice 10 minutes before stress loading.

[2] = Hydrochloric acid-ethanol-induced ulcer in rats; assay type: in vivo, Wistar rats (male)
Experimental: Male Wistar rats (body weights, 170-210 g) were used in groups of 6 to 8 animals. Indomethacin, 20 mg/kg body weight, was injected subcutaneously to rats which had been deprived of food for 24 hours. After 7 hours, the stomach was excised under ether anesthesia. A 10% aqueous solution of formaldehyde was infused into the stomach until the stomach was inflated and, then, the stomach was immersed in a 10% aqueous solution of formaldehyde for 10 minutes for fixation of the tissue. After fixation, an incision was made along the greater curvature and the length of ulcers occurring in the glandular portion of the stomach was measured. The total length of ulcers occurring in a rat was taken as an ulcer index. Each test compound was orally administered, as suspended in a gum arabic solution in concentration of 5%, to rats 10 minutes before subcutaneous injection of indomethacin. Male Wistar rats (body weights, 160-190 g) were used in groups of 6 to 8 animals. One milliliter of a 60% aqueous solution of ethanol containing 150 mM hydrochloric acid was administered orally to rats which had been deprived of food for 24 hours. After one hour, the stomach was excised under ether anesthesia. In a manner similar to that described in study for indomethacin-induced ulcer, the ulcer index was determined. Each test compound was orally administered, as suspended in a gum arabic solution in concentration of 5%, to rats 1 hour before administration of hydrochloric acid-ethanol.

[3] = Indomethacin-induced ulcer in rats; assay type: in vivo, Wistar rats (male); conditions: Table 3, 200 mg/kg p.o.
Experimental: Male Wistar rats (body weights, 170-210 g) were used in groups of 6 to 8 animals. Indomethacin, 20 mg/kg body weight, was injected subcutaneously to rats which had been deprived of food for 24 hours. After 7 hours, the stomach was excised under ether anesthesia. A 10% aqueous solution of formaldehyde was infused into the stomach until the stomach was inflated and, then, the stomach was immersed in a 10% aqueous solution of formaldehyde for 10 minutes for fixation of the tissue. After fixation, an incision was made along the greater curvature and the length of ulcers occurring in the glandular portion of the stomach was measured. The total length of ulcers occurring in a rat was taken as an ulcer index. Each test compound was orally administered, as suspended in a gum arabic solution in concentration of 5%, to rats 10 minutes before subcutaneous injection of indomethacin. The doses of test compounds and the ulcer indices for treated and untreated rats are shown in Table 3 for purposes of comparison. The % inhibition of ulcer by each test compound as estimated from the ulcer index is also presented in the same table.

[4] = Pyloric ligation-induced ulcer (Shay ulcer) in rats; assay type: in vivo, Wistar rats (male); conditions: Table 2, 200 mg/kg i.d.
Experimental: Male Wistar rats (body weights, 180-200 g) were used in groups of 7 animals. After 48-hour fasting, laparotomy was performed under ether anesthesia and the pylorus was ligated with a suture. After 13 hours, the stomach was isolated under ether anesthesia and gastric juice was collected. The gastric juice was centrifuged at 3,000 r.p.m. for 10 minutes and the volume and pH value of gastric juice were determined. The pH value was determined by using pH paper. After collection of gastric juice, a 10% aqueous solution of formaldehyde was infused into the stomach until the stomach was inflated. Then, the stomach was immersed in a 10% aqueous solution of formaldehyde for 10 minutes for fixation of the tissue. After fixation, an incision was made along the greater curvature for observing ulcers which had developed in the glandular portion of the stomach. The degree of ulcer was classified according to the following ulcer index scale.
2: 1-5 small ulcers (<3 mm in diameter)
3: Six or more small ulcers or one large ulcer (>3 mm in diameter)
4: Two or more large ulcers
Each test compound was administered, as suspended in a gum arabic solution in concentration of 5%, into the duodenum immediately after pyloric ligation.

[5] = Expectorant action: tracheal secretion of fluorescein sodium in rats; assay type: in vivo, Wistar rats (male); conditions: 50 mg/kg oral
Experimental: Male Wistar rats (body weights, 280-320 g) were used in groups of 7 animals. Each test compound was orally administered in dose of 50 mg/kg body weight to rats. Immediately after administration, 0.3 ml/100 g (body weight of rat) of a 1% aqueous solution of fluorescein sodium was injected into the caudal vein. One hour after administration of the test compound, pentobarbital sodium 100 mg/kg (body weight of rat) was injected intraperitoneally so that deep anesthesia might cause the rat to die. Then, the trachea was exposed and an incision was made in the trachea. A sonde was inserted thereinto and ligation was made. To the sonde was connected a syringe containing 10 ml of a 5% solution of sodium hydrogen carbonate kept at 37° C. and 4 ml of the solution of sodium hydrogen carbonate was injected into the lung. After 5 minutes, the fluid in the lung was removed. After this procedure of injection and removal was repeated three times, the fluid removed from the lung was filtered and the filtrate was made up with water to make 20 ml. The intensity of fluroescence was determined at the excitation wave length of 491 nm and the fluorescence wave length of 510 nm using a spectrophotometer (HITACHI model 650-10, Hitachi, Ltd.). The amount of fluorescein sodium secreted into the trachea was estimated from the intensity of fluorescence. Each test compound was administered as suspended in a gum arabic solution in concentration of 5%.

[6] = Table 16, control 6.455 ± 0.766

## CN1[C@@H]2CC[C@H]1C[C@@H](OC(=O)C(CO)c1ccccc1)C2 (stereo partly shown) [Atropine sulfate]
[1]; Table 1, 30 mg/kg p.o.
  % Inhibition of ulcer: 80.99%
[1]; Table 1, 30 mg/kg p.o., control 2.63 ± 0.18
  Ulcer index (mean ± S.E.): 0.50 ± 0.29 mm

## CNC(=NC#N)NCCSCc1nc[nH]c1C [Cimetidine, N"-cyano-N-methyl-N'-[2-[(5-methyl-1H-imidazol-4-yl)methylthio]ethyl]guanidine, reference compound]
[1]; mouse, in vivo, po, 200 mg/kg
  % Inhibition of ulcer: 49.43%
  Ulcer index (mean ± S.E.): 1.33 ± 0.21 mm
[2]; Rattus norvegicus, po, 1 h, Table 7, 200 mg/kg p.o.
  inhibition in vivo at 200 mg/kg: 77.9%
[2]; Rattus norvegicus, po, 1 h, Table 12, 200 mg/kg p.o.
  inhibition in vivo at 200 mg/kg: 78%
[2]; Table 4, 200 mg/kg p.o., control 7.36 ± 1.23
  Ulcer index (mean ± S.E.): 1.63 ± 0.49 mm
[2]; Table 12, 200 mg/kg p.o., control 9.93 ± 0.91
  Ulcer index (mean ± S.E.): 2.18 ± 1.04 mm
[3]
  % Inhibition of ulcer: 86.97%
[3]; control 10.36 ± 2.07
  Ulcer index (mean ± S.E.): 1.35 ± 0.48 mm
[4]; control 1.77 ± 0.54
  pH value of gastric juice: 2.29 ± 0.88
[4]; control 5.09 ± 0.40
  Volume of gastric juice: 5.13 ± 0.99 ml/100 g body weight
[4]; scale 0-5, control 3.86 ± 0.40
  Ulcer index (mean ± S.E.): 1.71 ± 0.18

## COc1c(C)c(C)c2c(c1C)CCC(C)(CCN1CCN(C(=O)CCC=C(C)CCC=C(C)CCC=C(C)C)CC1)O2 (stereo not shown) [Compound (24), 1-[2-(3,4-Dihydro-6-methoxy-2,5,7,8-tetramethyl-2H-benzopyran-2-yl)ethyl]-4-(5,9,13-trimethyl-4,8,12-tetradecatrienoyl)piperazine]
[5]; Table 14, control 1.60 ± 0.18
  Secretory amount (mean ± S.E.): 2.74 ± 0.22 μg/100 g (body weight of rat)/

## COc1ccc2c(c1)OC(C)(CCN1CCN(C(=O)c3cc(OC)c(OC)c(OC)c3)CC1)CC2 (stereo not shown) [Compound (25), 1-[2-(3,4-Dihydro-7-methoxy-2-methyl-2H-benzopyran-2-yl)ethyl]-4-(3,4,5-trimethoxybenzoyl)piperazine]
[5]; Table 14, control 1.60 ± 0.18
  Secretory amount (mean ± S.E.): 3.08 ± 0.19 μg/100 g (body weight of rat)/

## COc1ccc(C(=O)N2CCN(CCC3(C)CCc4cc(Cl)ccc4O3)CC2)cc1 (stereo not shown) [Compound (26), 1-[2-(6-Chloro-3,4-dihydro-2-methyl-2H-benzopyran-2-yl)ethyl]-4-(4-methoxybenzoyl)piperazine]
[5]; Table 15, control 5.20 ± 0.78
  Secretory amount (mean ± S.E.): 9.61 ± 0.83 μg/100 g (body weight of rat)/

## COc1ccc(C(=O)N2CCN(CCCC3(C)CCc4c(C)c(OC)c(C)c(C)c4O3)CC2)cc1 (stereo not shown) [Compound (27), 1-[3-(3,4-Dihydro-6-methoxy-2,5,7,8-tetramethyl-2H-benzopyran-2-yl)propyl]-4-(4-methoxybenzoyl)piperazine]
[5]; Table 15, control 5.20 ± 0.78
  Secretory amount (mean ± S.E.): 6.45 ± 0.72 μg/100 g (body weight of rat)/

## COc1ccc(CN2CCN(C(=O)CC3(C)CCc4c(C)c(OC)c(C)c(C)c4O3)CC2)c(OC)c1OC (stereo not shown) [Compound (28), 1-[(3,4-Dihydro-6-methoxy-2,5,7,8-tetramethyl-2H-benzopyran-2-yl)acetyl]-4-(2,3,4-trimethoxybenzyl)piperazine]
[5]; Table 14, control 1.60 ± 0.18
  Secretory amount (mean ± S.E.): 3.28 ± 0.31 μg/100 g (body weight of rat)/

## COc1ccc(CN2CCN(C(=O)CC3(C)CCc4cc(Cl)ccc4O3)CC2)c(OC)c1OC (stereo not shown) [Compound (29), 1-[(6-Chloro-3,4-dihydro-2-methyl-2H-benzopyran-2-yl)acetyl]-4-(2,3,4-trimethoxybenzyl)piperazine]
[5]; Table 13, control 5.30 ± 0.40
  Secretory amount (mean ± S.E.): 5.57 ± 0.36 μg/100 g (body weight of rat)/

## COc1ccc(CN2CCN(C(=O)C3(C)CCc4c(C)c(OC)c(C)c(C)c4O3)CC2)c(OC)c1OC (stereo not shown) [Compound (30), 1-[(3,4-Dihydro-6-methoxy-2,5,7,8-tetramethyl-2H-benzopyran-2-yl)carbonyl]-4-(2,3,4-trimethoxybenzyl)piperazine]
[5]; Table 13, control 5.30 ± 0.40
  Secretory amount (mean ± S.E.): 5.45 ± 0.54 μg/100 g (body weight of rat)/

## COc1ccc(CN2CCN(CCC3(C)CCc4c(C)c(OC)c(C)c(C)c4O3)CC2)c(OC)c1OC (stereo not shown) [Compound (31), 1-[2-(3,4-Dihydro-6-methoxy-2,5,7,8-tetramethyl-2H-benzopyran-2-yl)ethyl]-4-(2,3,4-trimethoxybenzyl)piperazine]
[2]; Rattus norvegicus, po, 1 h, Table 11, 50 mg/kg p.o.
  inhibition in vivo at 50 mg/kg: 100%
[2]; Table 11, 50 mg/kg p.o., control 6.12 ± 1.76
  Ulcer index (mean ± S.E.): 0.00 ± 0.00 mm
[5]; [6]
  Secretory amount (mean ± S.E.): 7.529 ± 0.751 μg/100 g (body weight of rat)/

## COc1c(C)c(C)c2c(c1C)CCC(C)(CCN1CCN(C(=O)c3ccccc3)CC1)O2 (stereo not shown) [Compound (32), 1-Benzoyl-4-[2-(3,4-dihydro-6-methoxy-2,5,7,8-tetramethyl-2H-benzopyran-2-yl)ethyl]piperazine]
[5]; Table 13, control 5.30 ± 0.40
  Secretory amount (mean ± S.E.): 5.43 ± 0.72 μg/100 g (body weight of rat)/

## COc1c(C)c(C)c2c(c1C)CCC(C)(CCN1CCN(CCO)CC1)O2 (stereo not shown) [Compound (35), 1-[2-(3,4-Dihydro-6-methoxy-2,5,7,8-tetramethyl-2H-benzopyran-2-yl)ethyl]-4-(2-hydroxyethyl)piperazine]
[5]; [6]
  Secretory amount (mean ± S.E.): 10.297 ± 1.841 μg/100 g (body weight of rat)/
